Data set [1] can be described thus: In vivo distribution of doxorubicin in the liver of Wistar rats. As to conditions: female, rat, intravenous, 5 mg/kg.
Data set [2] can be described thus: In vivo distribution of doxorubicin in Californian rabbit liver. As to conditions: intravenous, 5 mg/kg.
The conditions of data set [3]: female, Wistar, rat, in vivo, 5 mg/kg, 2 h.
For data set [4] the following is noted: Californian, rabbit, in vivo, 5 mg/kg, 0.5 h.
The conditions of data set [5]: rabbit ear vein; 1.25 mg doxorubicin/kg vs 5.0 mg doxorubicin/kg doxorubicin hydrochloride. How it is done: FIG. 9 are graphs illustrating doxorubicin concentration in the liver and the heart upon intravenous injection of 5 mg/kg aqueous doxorubicin hydrochloride and of 1.25 mg/kg of the composition of the invention according to Example 1.
The doxorubicin composition of the invention according to Example 1 (R═C16 sulfonate) was administered to Californian rabbits by injection into the ear vein at a concentration of 1.25 mg doxorubicin/kg body weight. For comparison aqueous doxorubicin hydrochloride was administered in the same manner at a concentration of 5.0 mg doxorubicin/kg body weight.

The nature of data set [6]: Solubility in aqueous ethanol (UV method). The class given is physicochemical. How it is done:
Solubility in aqueous ethanol was determined by centrifuging an adequate amount of freshly obtained colloid at 3000 rpm for 30-90 min, decanting the supernatant, adding 10 mL water and shaking the mixture, then repeating centrifugation, shaking and washing 3 times. The centrifugate from the final centrifugation was air dried for 72 h at room temperature followed by drying in vacuo for 24 h. A portion of the dried centrifugate (20 mg) was resuspended in 6 mL aqueous ethanol by stirring at room temperature for 24 h. The mixture was centrifuged at 3000 rpm for 10 min and the supernatant filtered through a 0.2 micrometer filter to remove aggregates of undissolved solid product. The solubility of the compound was determined by a UV method.

Results on 2 molecules are retold here after patent US10973772B2, “Targeted delivery of hydrophilic drugs” (Double Bond Pharmaceuticals AB, priority 2014, dated 2021).

One may read the Solubility as the concentration that dissolves in the medium under given conditions. Low readings indicate little dissolved substance, high ones much dissolved substance.

Structures can show the parent of a compound that is named as a salt. Where two headings read alike, the source gives them in different places.

In data set [1], `COc1cccc2c1C(=O)c1c(O)c3c(c(O)c1C2=O)C[C@@](O)(C(=O)CO)C[C@@H]3O[C@H]1C[C@H](N)[C@H](O)[C@H](C)O1` [Cl^−, doxorubicin hydrochloride] returned a concentration at 2 h of 11.5 ± 2.98 ng/g. Besides, in data set [2], the concentration at 0.5 h stood at 0.392 ± 0.128 ng/g. In addition, the “Increase of doxorubicin concentration in liver tissue” value in data set [3] and in data set [4] was “(1) times” in each case.

Consider `CCCCCCCCCCCCCCCCS(=O)(=O)O.COc1cccc2c1C(=O)c1c(O)c3c(c(O)c1C2=O)C[C@@](O)(C(=O)CO)C[C@@H]3O[C@H]1C[C@H](N)[C@H](O)[C@H](C)O1` [doxorubicin alkane sulfonate n=16], for which, in data set [5], the “Delivery of doxorubicin to the heart versus aqueous doxorubicin hydrochloride” value is listed as “no difference” and the “Efficiency of delivery of doxorubicin to the liver versus aqueous doxorubicin hydrochloride” value was “about four”. Besides, in data set [6] (colloid doxorubicin alkyl sulfates and alkane sulfonates in 30% ethanol (v/v)), the Solubility worked out at 11.94 µg/mL. Moreover, in data set [6] (doxorubicin salts, 30% ethanol (Table 5)), the “Solubility in 30% ethanol” value amounted to 11.94 µg/mL.
